Laboratory results reported in patent US20200318079A1, “ACTIVITY-DEPENDENT EXPRESSION CONSTRUCTS AND METHODS OF USING THE SAME” (The Board of Trustees of the Leland Stanford Junior …, priority 2016, published 2020).

Tested on: c-Fos regulatory region
Assay: Activity-dependent expression of a reporter driven by c-Fos regulatory regions
Details: comparison of three regulatory regions
Source text: The activity-dependent expression of a reporter construct driven by a regulatory region containing 761 bp of 5′ mouse c-Fos non-coding sequence, mouse c-Fos exon 1 and mouse c-Fos intron 1, as depicted in FIG. 9 (SEQ ID NO:7) was compared to: (1) the activity-dependent expression of the same reporter driven by the c-Fos 5′-non-coding sequence depicted in FIG. 10 (SEQ ID NO:1) and (2) the activity-dependent expression of the same reporter driven by the entire c-Fos gene followed by an IRES as depicted in FIG. 11 (SEQ ID NO:29).

SEQ ID NO:7: reporter driven by regulatory region containing 761 bp of 5′ mouse c-Fos non-coding sequence, mouse c-Fos exon 1 and intron 1
activity-dependent expression of the reporter: best for high, non-leaky expression
